Active and inactive are the calls of the source.
Legend:
Protein Wnt-3a = Protein Wnt-3a (Mus musculus, UniProt P27467); assay: Wnt3a-driven reporter signaling inhibition, dose response, selectivity assay for Gli-SUFU antagonist project, Wnt-LIGHT cells, luminescence (AID 651570); assay type: functional; settings: read-out: IC50_Mean;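 note: Wnt-LIGHT reporter cells stimulated with conditioned medium from Wnt3a-producing cells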
[1] = molecular target: T1, Rac GTPase-activating protein 1 (Homo sapiens, UniProt Q9H0H5); assay: MgcRacGAP GTPase-activating activity inhibitors, confirmation, biochemical, ADP Hunter fluorescence, primary and confirmatory (AID 624330); assay type: functional
T1 sequence (Q9H0H5 whole entry): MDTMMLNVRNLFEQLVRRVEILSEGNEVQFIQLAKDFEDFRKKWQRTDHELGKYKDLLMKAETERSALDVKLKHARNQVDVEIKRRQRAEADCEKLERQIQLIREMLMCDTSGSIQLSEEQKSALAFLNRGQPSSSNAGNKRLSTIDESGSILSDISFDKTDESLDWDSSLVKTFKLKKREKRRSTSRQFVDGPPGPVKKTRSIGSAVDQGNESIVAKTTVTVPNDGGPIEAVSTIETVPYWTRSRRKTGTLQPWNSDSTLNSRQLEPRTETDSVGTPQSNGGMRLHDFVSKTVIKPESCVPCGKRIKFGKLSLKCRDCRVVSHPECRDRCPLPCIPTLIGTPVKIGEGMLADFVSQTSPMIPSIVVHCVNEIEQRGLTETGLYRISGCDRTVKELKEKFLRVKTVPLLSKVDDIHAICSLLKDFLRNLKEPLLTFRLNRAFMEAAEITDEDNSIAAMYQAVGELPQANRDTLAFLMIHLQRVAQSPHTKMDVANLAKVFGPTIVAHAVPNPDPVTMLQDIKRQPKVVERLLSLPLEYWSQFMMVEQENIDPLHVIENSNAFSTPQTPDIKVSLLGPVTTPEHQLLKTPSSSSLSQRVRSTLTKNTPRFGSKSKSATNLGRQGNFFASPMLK

[2] = Luminescence Cell-Based Dose Response HTS to Identify Activators of Luciferase Translation or Activity in H4 […] Cells. [Related pubchem assays: 1829 (Project Summary), 1814 (Primary HTS)]; assay type: functional
[3] = molecular target: T2, Low molecular weight phosphotyrosine protein phosphatase (Homo sapiens, UniProt P24666); assay type: functional; settings: read-out: IC50_Mean
T2 sequence (P24666 whole entry): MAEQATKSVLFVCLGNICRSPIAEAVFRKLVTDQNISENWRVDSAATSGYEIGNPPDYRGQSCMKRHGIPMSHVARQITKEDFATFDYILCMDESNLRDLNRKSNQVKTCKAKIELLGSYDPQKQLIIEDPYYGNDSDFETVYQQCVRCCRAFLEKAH

H4 = assay: Luminescence Cell-Based Dose Response HTS to Identify Activators of 5'UTR Stem-Loop Driven Prion Protein mRNA Translation in H4 Neuroglioblastoma Cells. [Related pubchem assays: 1829 (Project Summary), 1814 (Primary HTS)]; assay type: functional; settings: Homo sapiens
[4] = molecular target: T2, Low molecular weight phosphotyrosine protein phosphatase; assay type: functional; settings: read-out: IC50_Mean; remark: listed apart in the source
[5] = Luminescence Cell-Based Dose Confirmation HTS to Identify Activators of 5'UTR Stem-Loop Driven Alpha-Synuclein mRNA Translation in H4 Neuroglioblastoma Cells. [Related pubchem assays: 1829 (Project Summary), 1814 (Primary HTS)]; assay type: functional
[6] = molecular target: T3, DNA repair and recombination protein RAD54-like (Homo sapiens, UniProt Q92698); assay: inhibitors of human RAD54 branch migration, confirmation, biochemical, fluorescence, cherry-picked samples, dose series (AID 651657); assay type: functional
T3 sequence (Q92698 whole entry): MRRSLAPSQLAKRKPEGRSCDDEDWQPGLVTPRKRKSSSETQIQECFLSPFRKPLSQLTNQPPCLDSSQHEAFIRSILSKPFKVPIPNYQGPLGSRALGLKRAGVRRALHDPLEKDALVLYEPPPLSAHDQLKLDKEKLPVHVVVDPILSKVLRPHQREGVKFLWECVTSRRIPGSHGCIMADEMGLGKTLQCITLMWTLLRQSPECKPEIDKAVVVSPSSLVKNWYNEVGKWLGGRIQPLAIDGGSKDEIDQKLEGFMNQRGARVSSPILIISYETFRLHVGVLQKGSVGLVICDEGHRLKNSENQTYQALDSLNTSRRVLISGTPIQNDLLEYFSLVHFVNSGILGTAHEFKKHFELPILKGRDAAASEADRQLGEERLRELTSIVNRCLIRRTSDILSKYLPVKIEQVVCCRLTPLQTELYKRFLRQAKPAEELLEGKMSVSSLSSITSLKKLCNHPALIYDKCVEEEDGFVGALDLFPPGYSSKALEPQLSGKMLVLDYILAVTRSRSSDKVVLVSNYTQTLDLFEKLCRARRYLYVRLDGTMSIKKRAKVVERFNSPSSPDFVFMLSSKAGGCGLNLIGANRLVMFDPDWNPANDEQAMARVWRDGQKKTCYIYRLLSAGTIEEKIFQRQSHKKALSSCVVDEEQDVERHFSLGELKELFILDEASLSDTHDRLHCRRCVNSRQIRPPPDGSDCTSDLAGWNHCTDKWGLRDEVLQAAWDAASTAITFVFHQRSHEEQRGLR

[7] = ARNT/TACC3 interaction disruptors, potency, confirmation, biochemical, AlphaScreen, cherry-picked samples (AID 651703); assay type: functional, Homo sapiens;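 note: His-tagged ARNT PAS-B domain paired with GST-TACC3 E629A dimer coactivator fragment; potency of inhibitors that break up the complex and lower AlphaScreen signal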
[8] = molecular target: Induced myeloid leukemia cell differentiation protein Mcl-1 (Homo sapiens, UniProt Q07820); assay type: functional
[9] = molecular target: Hepatocyte nuclear factor 4-alpha (Homo sapiens, UniProt P41235); assay type: functional, cell-based;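 note: biochemical luminescence-based dose-response counterscreen measuring inhibition of HNF4 dimerization, run alongside a screen for blockers of ABHD5–perilipin-5 interaction; split luciferase complementation of HNF4 fusion proteins in cell lysate measuring dimerization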
[10] = molecular target: Adenosylmethionine-8-amino-7-oxononanoate aminotransferase (Mycobacterium tuberculosis, UniProt P9WQ81); assay: Mycobacterium tuberculosis BioA enzyme inhibitor Measured in Biochemical System Using Plate Reader - 2163-02_Inhibitor_Dose_CherryPick_Activity.; assay type: functional, Mycobacterium tuberculosis UT205
Caspase-3 = molecular target: T4, Caspase-3 (Homo sapiens, UniProt P42574); assay: SAR Analysis of small molecule inhibitors of Sentrin-specific proteases (SENPs) using a Caspase-3 Selectivity assay. [Related pubchem assays (depositor defined):AID2540, AID2599, AID434973, AID489001]; assay type: functional
T4 sequence (P42574 whole entry): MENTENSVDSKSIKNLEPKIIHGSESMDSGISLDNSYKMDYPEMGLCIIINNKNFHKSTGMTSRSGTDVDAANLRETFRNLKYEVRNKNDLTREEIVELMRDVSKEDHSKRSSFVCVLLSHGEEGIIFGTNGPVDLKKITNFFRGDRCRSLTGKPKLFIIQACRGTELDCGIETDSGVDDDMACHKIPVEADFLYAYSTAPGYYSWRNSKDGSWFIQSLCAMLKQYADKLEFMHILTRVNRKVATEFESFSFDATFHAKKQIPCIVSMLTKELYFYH

[11] = molecular target: T5, Sentrin-specific protease 8 (Homo sapiens, UniProt Q96LD8); assay: SENP8 protease inhibitors, SAR follow-up, biochemical, luminescence (AID 504501); assay type: functional
T5 sequence (Q96LD8 whole entry): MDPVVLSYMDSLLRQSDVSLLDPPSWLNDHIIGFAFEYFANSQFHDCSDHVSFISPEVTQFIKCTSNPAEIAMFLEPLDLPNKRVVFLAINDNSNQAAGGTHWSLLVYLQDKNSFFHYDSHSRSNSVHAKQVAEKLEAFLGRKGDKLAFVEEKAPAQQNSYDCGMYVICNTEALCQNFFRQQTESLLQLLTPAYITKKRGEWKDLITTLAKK

[12] = molecular target: T6, Sentrin-specific protease 6 (Homo sapiens, UniProt Q9GZR1); assay: SAR Analysis of small molecule inhibitors of Sentrin-specific protease 6 (SENP6) using a Luminescent assay. [Related pubchem assays (depositor defined):AID2582, AID2599]; assay type: functional
T6 sequence (Q9GZR1 whole entry): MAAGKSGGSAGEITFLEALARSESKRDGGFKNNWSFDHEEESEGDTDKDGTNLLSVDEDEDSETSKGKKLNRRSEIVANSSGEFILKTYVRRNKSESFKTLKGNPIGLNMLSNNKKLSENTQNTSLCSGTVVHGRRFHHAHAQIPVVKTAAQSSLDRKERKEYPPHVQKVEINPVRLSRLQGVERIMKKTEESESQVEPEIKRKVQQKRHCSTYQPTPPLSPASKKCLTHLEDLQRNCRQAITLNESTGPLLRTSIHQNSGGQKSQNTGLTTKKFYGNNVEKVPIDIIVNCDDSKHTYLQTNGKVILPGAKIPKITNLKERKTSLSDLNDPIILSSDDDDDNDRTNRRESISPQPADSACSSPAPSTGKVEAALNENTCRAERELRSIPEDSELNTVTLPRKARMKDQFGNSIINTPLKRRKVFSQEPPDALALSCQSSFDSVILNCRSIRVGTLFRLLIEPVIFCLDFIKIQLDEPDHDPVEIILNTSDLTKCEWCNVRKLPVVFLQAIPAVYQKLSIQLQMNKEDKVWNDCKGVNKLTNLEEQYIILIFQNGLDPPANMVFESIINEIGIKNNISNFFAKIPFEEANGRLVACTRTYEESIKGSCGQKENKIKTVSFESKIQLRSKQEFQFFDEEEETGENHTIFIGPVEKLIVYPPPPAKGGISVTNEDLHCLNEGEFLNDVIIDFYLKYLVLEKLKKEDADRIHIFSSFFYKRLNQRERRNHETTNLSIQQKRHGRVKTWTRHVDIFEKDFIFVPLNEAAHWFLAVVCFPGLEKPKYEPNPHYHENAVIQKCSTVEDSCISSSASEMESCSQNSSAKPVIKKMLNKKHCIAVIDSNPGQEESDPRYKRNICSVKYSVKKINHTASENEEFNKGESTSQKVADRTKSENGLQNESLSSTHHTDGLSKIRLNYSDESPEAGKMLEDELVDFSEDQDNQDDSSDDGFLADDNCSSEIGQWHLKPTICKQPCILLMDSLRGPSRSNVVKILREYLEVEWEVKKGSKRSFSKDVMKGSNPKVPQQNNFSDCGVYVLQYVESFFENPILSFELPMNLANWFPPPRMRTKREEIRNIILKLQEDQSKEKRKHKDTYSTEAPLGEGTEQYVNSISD

[13] = molecular target: T7, Sentrin-specific protease 7 (Homo sapiens, UniProt Q9BQF6); assay: SENP7 protease inhibitors, SAR follow-up, biochemical, luminescence (AID 504497); assay type: functional
T7 sequence (Q9BQF6 whole entry): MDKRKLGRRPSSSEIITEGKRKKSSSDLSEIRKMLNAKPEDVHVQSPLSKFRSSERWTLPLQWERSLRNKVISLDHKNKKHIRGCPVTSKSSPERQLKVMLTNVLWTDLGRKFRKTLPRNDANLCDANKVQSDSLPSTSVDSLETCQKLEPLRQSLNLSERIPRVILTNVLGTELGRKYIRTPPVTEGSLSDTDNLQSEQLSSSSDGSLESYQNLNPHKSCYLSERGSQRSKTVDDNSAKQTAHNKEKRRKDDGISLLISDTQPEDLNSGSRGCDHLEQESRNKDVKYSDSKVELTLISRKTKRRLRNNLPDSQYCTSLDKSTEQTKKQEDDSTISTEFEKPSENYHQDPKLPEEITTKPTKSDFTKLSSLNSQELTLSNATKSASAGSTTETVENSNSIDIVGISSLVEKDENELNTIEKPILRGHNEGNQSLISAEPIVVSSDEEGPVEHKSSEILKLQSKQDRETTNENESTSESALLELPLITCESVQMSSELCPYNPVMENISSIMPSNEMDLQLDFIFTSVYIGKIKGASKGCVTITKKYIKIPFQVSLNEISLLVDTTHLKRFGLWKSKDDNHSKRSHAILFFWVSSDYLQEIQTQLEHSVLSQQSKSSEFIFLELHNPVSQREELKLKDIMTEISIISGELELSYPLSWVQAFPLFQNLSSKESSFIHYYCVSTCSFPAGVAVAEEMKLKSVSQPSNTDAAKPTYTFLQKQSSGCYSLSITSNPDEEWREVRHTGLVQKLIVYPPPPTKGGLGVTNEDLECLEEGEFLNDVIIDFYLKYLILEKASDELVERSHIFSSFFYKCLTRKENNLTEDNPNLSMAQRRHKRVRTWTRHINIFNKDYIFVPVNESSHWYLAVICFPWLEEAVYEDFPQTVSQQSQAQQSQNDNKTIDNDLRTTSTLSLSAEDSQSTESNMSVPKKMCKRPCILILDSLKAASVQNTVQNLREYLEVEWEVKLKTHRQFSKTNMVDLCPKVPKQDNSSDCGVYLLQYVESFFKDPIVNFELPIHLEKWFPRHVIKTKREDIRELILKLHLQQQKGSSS

[14] = molecular target: Mitochondrial peptide methionine sulfoxide reductase (Bos taurus, UniProt P54149); assay: Absorbance-based biochemical high throughput dose response assay for activators of Methionine sulfoxide reductase A (MsrA).; assay type: functional
Mitochondrial peptide methionine sulfoxide reductase, sequence (P54149 whole entry): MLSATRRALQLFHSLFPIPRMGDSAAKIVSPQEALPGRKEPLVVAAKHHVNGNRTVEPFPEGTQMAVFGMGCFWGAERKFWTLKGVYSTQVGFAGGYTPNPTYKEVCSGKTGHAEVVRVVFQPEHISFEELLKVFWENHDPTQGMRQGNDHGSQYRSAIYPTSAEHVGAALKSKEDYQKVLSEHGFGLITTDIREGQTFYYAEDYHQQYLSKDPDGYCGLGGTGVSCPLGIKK

Adenosylmethionine-8-amino-7-oxononanoate aminotransferase, sequence (P9WQ81 whole entry): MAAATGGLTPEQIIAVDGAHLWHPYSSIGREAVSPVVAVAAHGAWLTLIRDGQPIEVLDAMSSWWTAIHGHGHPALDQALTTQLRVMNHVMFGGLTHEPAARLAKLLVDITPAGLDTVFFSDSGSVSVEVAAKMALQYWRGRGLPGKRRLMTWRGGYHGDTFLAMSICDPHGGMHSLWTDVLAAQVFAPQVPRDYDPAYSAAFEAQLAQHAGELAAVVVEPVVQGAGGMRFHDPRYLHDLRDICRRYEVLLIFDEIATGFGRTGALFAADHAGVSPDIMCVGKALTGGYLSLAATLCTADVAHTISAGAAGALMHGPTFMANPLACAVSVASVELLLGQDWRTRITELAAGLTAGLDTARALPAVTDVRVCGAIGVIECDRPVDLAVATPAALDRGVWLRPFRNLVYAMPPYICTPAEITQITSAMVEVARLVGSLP
Hepatocyte nuclear factor 4-alpha, sequence (P41235 whole entry, the tested form may be a part): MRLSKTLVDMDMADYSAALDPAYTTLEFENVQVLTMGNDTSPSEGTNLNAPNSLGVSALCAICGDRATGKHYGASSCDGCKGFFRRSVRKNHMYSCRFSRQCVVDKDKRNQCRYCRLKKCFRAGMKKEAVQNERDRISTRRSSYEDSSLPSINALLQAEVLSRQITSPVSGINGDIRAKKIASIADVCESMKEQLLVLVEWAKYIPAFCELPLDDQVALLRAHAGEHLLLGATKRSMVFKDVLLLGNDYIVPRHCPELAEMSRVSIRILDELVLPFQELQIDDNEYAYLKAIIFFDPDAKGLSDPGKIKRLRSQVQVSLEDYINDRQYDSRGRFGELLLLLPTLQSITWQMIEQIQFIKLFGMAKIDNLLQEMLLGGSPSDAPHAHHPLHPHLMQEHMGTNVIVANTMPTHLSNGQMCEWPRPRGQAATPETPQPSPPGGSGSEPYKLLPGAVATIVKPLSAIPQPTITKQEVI
Protein Wnt-3a, sequence (P27467 whole entry): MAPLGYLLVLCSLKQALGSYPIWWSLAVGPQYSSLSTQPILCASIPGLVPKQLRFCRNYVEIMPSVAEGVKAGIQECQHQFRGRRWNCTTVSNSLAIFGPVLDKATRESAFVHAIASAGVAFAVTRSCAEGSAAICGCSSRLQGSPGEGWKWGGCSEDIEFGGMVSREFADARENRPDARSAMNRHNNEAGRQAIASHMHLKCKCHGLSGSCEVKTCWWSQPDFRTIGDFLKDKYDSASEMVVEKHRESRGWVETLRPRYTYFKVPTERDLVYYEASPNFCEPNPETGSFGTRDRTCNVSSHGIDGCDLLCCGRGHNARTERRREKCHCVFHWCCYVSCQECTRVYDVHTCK
Induced myeloid leukemia cell differentiation protein Mcl-1, sequence (Q07820 whole entry, the tested form may be a part): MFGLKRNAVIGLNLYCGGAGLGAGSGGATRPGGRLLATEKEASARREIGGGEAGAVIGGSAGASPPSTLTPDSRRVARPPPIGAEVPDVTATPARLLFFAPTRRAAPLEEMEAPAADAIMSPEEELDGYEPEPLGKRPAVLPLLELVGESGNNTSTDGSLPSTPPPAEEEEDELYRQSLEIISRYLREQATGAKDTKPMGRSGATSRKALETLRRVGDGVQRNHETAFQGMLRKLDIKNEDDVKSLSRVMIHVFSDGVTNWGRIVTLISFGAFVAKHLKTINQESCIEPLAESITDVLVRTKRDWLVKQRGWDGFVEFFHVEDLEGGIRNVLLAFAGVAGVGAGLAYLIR

## Cc1nc2ncccn2c1-c1csc(Nc2ccc(O)cc2)n1
Protein Wnt-3a
  IC50: 48.9 µM (inactive)
[1]
  IC50: 14.3 µM (active)

## CC(=O)c1c(C)[nH]c(C(=O)OCC(=O)Nc2cccc(S(=O)(=O)N3CCCC3)c2)c1C
Protein Wnt-3a
  IC50: 5.02 µM (active)

## Cc1ccc(-c2nc(NCCN3CCOCC3)c3ccccc3n2)cc1
[2]
  EC50: 21.1 µM (active)
[3]
  IC50: 16 µM (active)
H4
  EC50: 16.9 µM (active)
[4]
  IC50: 30.7 µM (inactive)
[5]
  EC50: 56.3 µM (active)
[6]
  AC50: 24.8 µM (active)

## CC(=O)N1CN(Cc2ccccn2)Cc2c1sc1c2CCCC1
[7]
  AC50: 87.9 µM (active)

## CS(=O)(=O)c1ccc(C(=O)NCCN2C(=O)S/C(=C\c3cccnc3)C2=O)cc1[N+](=O)[O-]
[8]
  IC50: 2.17 µM (active)
[9]
  IC50: 5.89 µM (active)

## COc1cccc(NC(=O)CCC2CCN(C(=O)c3ccc(C(C)=O)s3)CC2)c1
[10]
  AC50: 0.508 µM (active)

## Cc1cc(C(F)F)nn1CC(=O)Nc1sc2c(c1C#N)CCC2
Caspase-3
  IC50: > 99 µM (inactive)
[11]
  IC50: > 99 µM (inactive)
[12]
  IC50: > 99 µM (inactive)
[13]
  IC50: > 99 µM (inactive)

## O=C(NCc1ccccn1)c1c(-c2ccccc2)sc2ccccc12
[7]
  AC50: 121 µM (active)

## CCCCc1ccc2nc(NC(=O)C3CCCCC3)sc2c1
Caspase-3
  IC50: > 99 µM (inactive)
[11]
  IC50: > 99 µM (inactive)
[12]
  IC50: > 99 µM (inactive)
[13]
  IC50: > 99 µM (inactive)

## CC1(C(=O)Nc2ccccc2)CCN1C(=O)Cc1ccc(-c2ccccc2)cc1 (stereo not given)
[14]
  EC50: > 104 µM (inactive)

## CCCCCNC(=O)C(c1cccc2ccccc12)n1c(=O)c(-c2ccco2)nc2ccccc21 (stereo not given)
[9]
  IC50: 2.83 µM (active)

## CC(C)(C)c1cc(C(=O)Nc2cccnc2)cc(C(=O)Nc2cccnc2)c1
[10]
  AC50: 1.28 µM (active)
